For orientation: melting point means the temperature, or range, at which the solid turns liquid.

The values that follow come from patent publication US20080132522A1, “2-Substituted Pyrimidines, Method for Their Production and Their Use for Controlling Pathogenic Fungi” (BASF Aktiengesellschaft, priority 2004, published 2008).

The test system of series [1] is Botrytis cinerea. The series is described as follows: Activity against gray mold on bell pepper leaves caused by Botrytis cinerea, protective application. The following applies: 250 ppm; bell pepper "Neusiedler Ideal Elite"; after 5 days; untreated 90% infected. In kind it is in vivo. As to the method:
(§1) The active compounds were prepared separately as a stock solution with 25 mg of active compound which was made up to 10 ml with a mixture of acetone and/or DMSO and the emulsifier Uniperol® EL (wetting agent having emulsifying and dispersing action based on ethoxylated alkylphenols) in a volume ratio solvent/emulsifier of 99 to 1. The solution was then made up to 100 ml with water. This stock solution was diluted to the active compound concentration stated below using the solvent/emulsifier/water mixture described.
Activity Against Gray Mold on Bell Pepper Leaves Caused by Botrytis cinerea, Protective Application
Bell pepper seedlings of the cultivar “Neusiedler Ideal Elite” were, after 2-3 leaves were well-developed, sprayed to runoff point with an aqueous suspension having the concentration of active compound stated below. The next day, the treated plants were inoculated with a spore suspension of Botrytis cinerea which contained 1.7×10^6 spores/ml in a 2% strength aqueous biomalt solution. The test plants were then placed in a dark climatized chamber at 22-24° C. and high atmospheric humidity. After 5 days, the extent of the fungal infection on the leaves could be determined visually in %.

In series [2] the test system is Pyrenophora teres. Put plainly: Activity against net blotch of barley caused by Pyrenophora teres, 1 day protective application. The following applies: 250 ppm; barley "Hanna"; after 6 days; untreated 90% infected. It is filed as in vivo, Pyrenophora [syn. Drechslera] teres. As to the method: The active compounds were prepared separately as a stock solution with 25 mg of active compound which was made up to 10 ml with a mixture of acetone and/or DMSO and the emulsifier Uniperol® EL (wetting agent having emulsifying and dispersing action based on ethoxylated alkylphenols) in a volume ratio solvent/emulsifier of 99 to 1. The solution was then made up to 100 ml with water. This stock solution was diluted to the active compound concentration stated below using the solvent/emulsifier/water mixture described. Activity Against Net Blotch of Barley Caused by Pyrenophora teres, 1 Day Protective Application Leaves of potted barley seedlings of the cultivar “Hanna” were sprayed to runoff point with an aqueous suspension having the concentration of active compounds stated below. 24 hours after the spray coating had dried on, the test plants were inoculated with an aqueous spore suspension of Pyrenophora [syn. Drechslera] teres, the net blotch pathogen. The test plants were then placed in a greenhouse at temperatures between 20 and 24° C. and 95 to 100% relative atmospheric humidity. After 6 days, the extent of the development of the disease was determined visually in % infection of the entire leaf area.

Series [3] concerns Alternaria solani. Put plainly: Activity against early blight of tomato caused by Alternaria solani. In kind it is in vivo. The following applies: 250 ppm; tomato "Goldene Königin"; after 5 days; untreated 90% infected. As to the method: as §1
Activity Against Early Blight of Tomato Caused by Alternaria solani
Leaves of potted plants of the cultivar “Goldene Königin” were sprayed to runoff point with an aqueous suspension having the concentration of active compounds stated below. The next day, the leaves were inoculated with an aqueous spore suspension of Alternaria solani in 2% biomalt solution having a density of 0.17×10^6 spores/ml. The plants were then placed in a water-vapor-saturated chamber at temperatures of between 20 and 22° C. After 5 days, the disease on the leaves of the untreated, but infected control plants had developed to such an extent that the infection could be determined visually in %.

Regarding `CC(C)Oc1nc(-n2cccn2)nc(Cl)c1-c1c(F)cc(F)cc1F` [1), 4-Chloro-6-isopropoxy-2-(pyrazol-1-yl)-5-(2,4,6-trifluorophenyl)pyrimidine], the melting point was 106 to 107 °C. The “infection of treated leaf areas” value in series [1] is “only little infection”. Besides, in series [2], the “infection of treated leaf areas” value was “only little infection”. In addition, the “infection of treated leaf areas” value in series [3] is “only little infection”.
In the case of `CON=C(N)c1nc(Cl)c(-c2c(F)cc(F)cc2F)c(OC(C)C)n1` [3), O-Methyl (4-chloro-6-isopropoxy-5-(2,4,6-trifluorophenyl)pyrimidin-2-yl)carbamidoxime], the “infection of treated leaf areas” value in series [1], in series [2] and in series [3] was “only little infection” throughout.
As for `CC(C)(C)Oc1nc(-c2ccccn2)nc(Cl)c1-c1c(F)cccc1Cl` [4)], the “infection of treated leaf areas” value in series [1], in series [2] and in series [3] was “only little infection” throughout.
Compound `CC(C)Oc1nc(C#N)nc(Cl)c1-c1c(F)cc(F)cc1F` [5), 4-Chloro-2-cyano-6-isopropoxy-5-(2,4,6-trifluorophenyl)pyrimidine] yielded a melting point of 32 °C.
